Source: PubChem BioAssay AID1963868 (Molecular Pharmacology Branch, DTP, NCI, 2024)

Tested on: KRAS PDC tumor spheroids (HUVEC+MSC), viability
Experiment: Anticancer human tumor 254851-301-R-J1-PDC patient-derived colon carcinoma cell line growth inhibition [KRAS2]
Settings: for viability, T/C: stronger effect = lower value
Outline: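 KRAS-mutant tumor cells were grown as spheroids with HUVEC endothelial cells and human MSCs as stroma. Targeted agents were tested alone and with KRAS pathway inhibitors. Doses started at or near clinical Cmax, or 10 microM, descending half-log.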

[1] = curve of first compound, second compound 0.1 µM
[2] = curve of first compound, second compound 0.316 µM
[3] = curve of first compound, second compound 1 µM
[4] = curve of first compound, second compound 3.16 µM
[5] = curve of first compound, second compound 10 µM
[6] = second compound 0.1 µM, first compound 0.0316 µM
[7] = second compound 0.1 µM, first compound 0.1 µM
[8] = second compound 0.1 µM, first compound 0.316 µM
[9] = second compound 0.1 µM, first compound 1 µM
[10] = second compound 0.1 µM, first compound 3.16 µM
[11] = second compound 0.1 µM, first compound 10 µM
[12] = second compound 0.316 µM, first compound 0.0316 µM
[13] = second compound 0.316 µM, first compound 0.1 µM
[14] = second compound 0.316 µM, first compound 0.316 µM
[15] = second compound 0.316 µM, first compound 1 µM
[16] = second compound 0.316 µM, first compound 3.16 µM
[17] = second compound 0.316 µM, first compound 10 µM
[18] = second compound 1 µM, first compound 0.0316 µM
[19] = second compound 1 µM, first compound 0.1 µM
[20] = second compound 1 µM, first compound 0.316 µM
[21] = second compound 1 µM, first compound 1 µM
[22] = second compound 1 µM, first compound 3.16 µM
[23] = second compound 1 µM, first compound 10 µM
[24] = second compound 3.16 µM, first compound 0.0316 µM
[25] = second compound 3.16 µM, first compound 0.1 µM
[26] = second compound 3.16 µM, first compound 0.316 µM
[27] = second compound 3.16 µM, first compound 1 µM
[28] = second compound 3.16 µM, first compound 3.16 µM
[29] = second compound 3.16 µM, first compound 10 µM
[30] = second compound 10 µM, first compound 0.0316 µM
[31] = second compound 10 µM, first compound 0.1 µM
[32] = second compound 10 µM, first compound 0.316 µM
[33] = second compound 10 µM, first compound 1 µM
[34] = second compound 10 µM, first compound 3.16 µM
[35] = second compound 10 µM, first compound 10 µM
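Note: spheroids exposed to compounds for seven days before readout.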
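Throughout, for viability, T/C: 100% = DMSO vehicle control luminescence of the spheroids.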

Row | Structure (SMILES) | IC50 [1] [µM] | IC50 [2] [µM] | IC50 [3] [µM] | IC50 [4] [µM] | IC50 [5] [µM] | viability, T/C [6] [%] | viability, T/C [7] [%] | viability, T/C [8] [%] | viability, T/C [9] [%] | viability, T/C [10] [%] | viability, T/C [11] [%] | viability, T/C [12] [%] | viability, T/C [13] [%] | viability, T/C [14] [%] | viability, T/C [18] [%] | viability, T/C [19] [%] | viability, T/C [24] [%] | viability, T/C [25] [%] | viability, T/C [30] [%] | viability, T/C [31] [%] | also measured
1 | O=C(c1cc(Cc2n[nH]c(=O)c3ccccc23)ccc1F)N1CCN(C(=O)C2CC2)CC1 + CC1OCC2(CCN(c3cnc(Sc4ccnc(N)c4Cl)c(N)n3)CC2)C1N | > 10 | > 10 | > 10 | > 10 | > 10 | 104 | 107 | 93.8 | 88 | 102 | 91.3 | 92.8 | 95 | 90.6 | 93.6 | 87.1 | 79.4 | 73.1 | 68.9 | 75.4 | viability, T/C [15]: 93.7%; viability, T/C [16]: 94.7%; viability, T/C [17]: 92.4%; viability, T/C [20]: 80.6%; viability, T/C [21]: 83.7%; viability, T/C [22]: 87.6%; viability, T/C [23]: 84%; viability, T/C [26]: 73.2%; viability, T/C [27]: 71.2%; viability, T/C [28]: 79.3%; viability, T/C [29]: 65.5%; viability, T/C [32]: 66.1%; viability, T/C [33]: 59.9%; viability, T/C [34]: 58.1%; viability, T/C [35]: 60.7%
2 | COc1cc2nc(C)nc(NC(C)c3cc(N)cc(C(F)(F)F)c3)c2cc1OC1CCOC1 (centres undefined) | – | – | – | – | – | – | – | – | – | – | – | – | – | – | – | – | – | – | – | – | viability, T/C (compound 1 µM): 92.5% [middle of 17 runs]; IC50 (compound alone, run of 07/12/2021): > 10 µM; IC50 (compound alone, run of 07/19/2021): > 10 µM; IC50 (compound alone, run of 07/26/2021): > 10 µM
3 | CC1OCC2(CCN(c3cnc(Sc4ccnc(N)c4Cl)c(N)n3)CC2)C1N (centres undefined) + CNCc1ccccc1-c1csc(C(C)Nc2nc(C)nc3cc(OC)c(OC)cc23)c1 | > 10 | > 10 | > 10 | < 0.0316 | < 0.0316 | 103 | 97.3 | 88.2 | 76.4 | 78.1 | 74.6 | 92.2 | 90.9 | 90.5 | 91.2 | 88.5 | 50.8 | 38.7 | 0.09 | 0.09 | viability, T/C [15]: 81.1%; viability, T/C [16]: 82.6%; viability, T/C [17]: 75.3%; viability, T/C [20]: 86.9%; viability, T/C [21]: 78.7%; viability, T/C [22]: 72.4%; viability, T/C [23]: 67.6%; viability, T/C [26]: 52.9%; viability, T/C [27]: 30.8%; viability, T/C [28]: 29.4%; viability, T/C [29]: 25.9%; viability, T/C [32]: 0.08%; viability, T/C [33]: 0.09%; viability, T/C [34]: 0.42%; viability, T/C [35]: 0.17%
4 | Cn1ncnc1[C@H]1c2n[nH]c(=O)c3cc(F)cc(c23)N[C@@H]1c1ccc(F)cc1 + C=CC(=O)N1CCN(c2nc(=O)n(-c3c(C)ccnc3C(C)C)c3nc(-c4c(O)cccc4F)c(F)cc23)C(C)C1 | > 0.1 | > 0.1 | > 0.1 | > 0.1 | > 0.1 | 106 | 98.8 | – | – | – | – | 88.5 | 92.4 | – | 97.7 | 86.5 | 96.3 | 90.4 | 87.4 | 96.8 | viability, T/C (second compound 0.1 µM, first compound 0.000316 µM): 101%; viability, T/C (second compound 0.1 µM, first compound 0.001 µM): 99.8%; viability, T/C (second compound 0.1 µM, first compound 0.00316 µM): 99.2%; viability, T/C (second compound 0.1 µM, first compound 0.01 µM): 99.3%; viability, T/C (second compound 0.316 µM, first compound 0.000316 µM): 97.5%; viability, T/C (second compound 0.316 µM, first compound 0.001 µM): 97.9%; viability, T/C (second compound 0.316 µM, first compound 0.00316 µM): 96%; viability, T/C (second compound 0.316 µM, first compound 0.01 µM): 94.5%; viability, T/C (second compound 1 µM, first compound 0.000316 µM): 90%; viability, T/C (second compound 1 µM, first compound 0.001 µM): 93.9%; viability, T/C (second compound 1 µM, first compound 0.00316 µM): 98%; viability, T/C (second compound 1 µM, first compound 0.01 µM): 94.7%; viability, T/C (second compound 3.16 µM, first compound 0.000316 µM): 97%; viability, T/C (second compound 3.16 µM, first compound 0.001 µM): 103%; viability, T/C (second compound 3.16 µM, first compound 0.00316 µM): 94%; viability, T/C (second compound 3.16 µM, first compound 0.01 µM): 94.3%; viability, T/C (second compound 10 µM, first compound 0.000316 µM): 108%; viability, T/C (second compound 10 µM, first compound 0.001 µM): 99.4%; viability, T/C (second compound 10 µM, first compound 0.00316 µM): 102%; viability, T/C (second compound 10 µM, first compound 0.01 µM): 91.7%
